{"source": "the kinase profiling compilation of Christmann-Franck et al. (2016)", "assay_in_all_cases": "Caliper, Mobility shift assay off-chip", "key": {"[1]": {"biological_target": "PAK3 (human) (UniProt O75914)"}, "[2]": {"biological_target": "WNK1 (human) (UniProt Q9H4A3)", "sequence (Q9H4A3 whole entry, looked up)": "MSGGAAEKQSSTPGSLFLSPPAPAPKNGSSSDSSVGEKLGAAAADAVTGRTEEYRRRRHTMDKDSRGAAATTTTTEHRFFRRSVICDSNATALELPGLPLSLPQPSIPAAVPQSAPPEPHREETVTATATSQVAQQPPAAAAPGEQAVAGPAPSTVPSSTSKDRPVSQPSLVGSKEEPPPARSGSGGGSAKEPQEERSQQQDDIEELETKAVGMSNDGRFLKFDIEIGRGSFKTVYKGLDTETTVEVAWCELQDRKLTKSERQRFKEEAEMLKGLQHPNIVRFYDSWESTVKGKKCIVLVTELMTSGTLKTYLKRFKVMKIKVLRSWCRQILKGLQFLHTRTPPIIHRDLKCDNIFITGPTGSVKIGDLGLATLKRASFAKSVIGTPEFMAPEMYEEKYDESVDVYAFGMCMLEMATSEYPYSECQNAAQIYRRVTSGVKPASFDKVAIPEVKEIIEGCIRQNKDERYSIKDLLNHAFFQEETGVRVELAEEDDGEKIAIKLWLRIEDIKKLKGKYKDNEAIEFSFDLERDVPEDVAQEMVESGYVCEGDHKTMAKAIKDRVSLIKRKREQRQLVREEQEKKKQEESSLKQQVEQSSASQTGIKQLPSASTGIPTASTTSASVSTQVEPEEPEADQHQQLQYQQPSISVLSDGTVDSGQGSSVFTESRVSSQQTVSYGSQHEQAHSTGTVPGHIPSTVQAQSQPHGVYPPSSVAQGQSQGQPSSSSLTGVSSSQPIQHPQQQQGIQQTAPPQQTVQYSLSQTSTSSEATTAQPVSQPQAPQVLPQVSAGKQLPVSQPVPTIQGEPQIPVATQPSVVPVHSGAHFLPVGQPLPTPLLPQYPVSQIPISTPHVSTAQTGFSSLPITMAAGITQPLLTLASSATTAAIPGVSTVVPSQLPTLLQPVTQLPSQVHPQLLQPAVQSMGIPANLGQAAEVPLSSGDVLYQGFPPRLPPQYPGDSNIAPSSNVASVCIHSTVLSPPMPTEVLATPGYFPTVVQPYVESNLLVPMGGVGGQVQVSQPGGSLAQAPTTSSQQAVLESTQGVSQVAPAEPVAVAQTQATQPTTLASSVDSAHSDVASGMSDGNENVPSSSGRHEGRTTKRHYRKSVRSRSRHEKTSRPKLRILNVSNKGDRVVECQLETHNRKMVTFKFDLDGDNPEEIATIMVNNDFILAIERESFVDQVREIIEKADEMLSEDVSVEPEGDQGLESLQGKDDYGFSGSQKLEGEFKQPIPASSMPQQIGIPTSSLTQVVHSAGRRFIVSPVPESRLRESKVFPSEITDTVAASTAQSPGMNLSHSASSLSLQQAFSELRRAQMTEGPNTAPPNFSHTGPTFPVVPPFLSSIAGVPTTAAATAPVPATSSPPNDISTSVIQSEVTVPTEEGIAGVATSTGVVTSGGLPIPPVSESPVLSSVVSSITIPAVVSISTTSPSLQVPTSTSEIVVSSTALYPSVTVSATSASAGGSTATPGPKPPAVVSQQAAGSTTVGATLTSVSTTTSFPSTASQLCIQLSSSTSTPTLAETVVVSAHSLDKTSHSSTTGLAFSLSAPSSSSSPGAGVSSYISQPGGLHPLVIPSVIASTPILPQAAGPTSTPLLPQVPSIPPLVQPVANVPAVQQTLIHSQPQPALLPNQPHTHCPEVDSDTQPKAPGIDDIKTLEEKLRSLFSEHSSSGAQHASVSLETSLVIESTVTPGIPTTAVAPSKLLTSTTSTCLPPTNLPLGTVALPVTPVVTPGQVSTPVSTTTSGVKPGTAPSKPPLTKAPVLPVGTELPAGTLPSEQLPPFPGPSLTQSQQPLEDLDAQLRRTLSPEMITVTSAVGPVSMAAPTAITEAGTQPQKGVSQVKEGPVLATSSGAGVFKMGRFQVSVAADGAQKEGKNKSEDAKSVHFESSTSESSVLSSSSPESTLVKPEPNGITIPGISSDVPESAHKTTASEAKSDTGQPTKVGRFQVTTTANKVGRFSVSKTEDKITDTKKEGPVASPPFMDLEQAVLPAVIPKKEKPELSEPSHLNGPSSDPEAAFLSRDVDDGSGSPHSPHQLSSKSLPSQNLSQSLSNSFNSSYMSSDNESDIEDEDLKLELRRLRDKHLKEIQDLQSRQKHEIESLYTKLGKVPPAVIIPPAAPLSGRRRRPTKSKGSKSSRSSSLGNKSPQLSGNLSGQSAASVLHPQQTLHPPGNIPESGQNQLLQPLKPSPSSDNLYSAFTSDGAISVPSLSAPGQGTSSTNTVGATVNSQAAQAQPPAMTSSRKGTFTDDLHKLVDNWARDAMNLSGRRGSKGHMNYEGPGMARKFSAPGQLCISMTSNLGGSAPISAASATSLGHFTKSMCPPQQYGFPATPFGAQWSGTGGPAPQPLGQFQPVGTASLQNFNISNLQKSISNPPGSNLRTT"}, "[3]": {"biological_target": "MARK2 (human) (UniProt Q7KZI7)"}, "[4]": {"biological_target": "EPHB1 (human) (UniProt P54762)"}, "[5]": {"biological_target": "PRKACB (human) (UniProt P22694)"}, "[6]": {"biological_target": "TXK (human) (UniProt P42681)"}, "[7]": {"biological_target": "CHEK1 (human) (UniProt O14757)", "sequence (O14757 whole entry, looked up)": "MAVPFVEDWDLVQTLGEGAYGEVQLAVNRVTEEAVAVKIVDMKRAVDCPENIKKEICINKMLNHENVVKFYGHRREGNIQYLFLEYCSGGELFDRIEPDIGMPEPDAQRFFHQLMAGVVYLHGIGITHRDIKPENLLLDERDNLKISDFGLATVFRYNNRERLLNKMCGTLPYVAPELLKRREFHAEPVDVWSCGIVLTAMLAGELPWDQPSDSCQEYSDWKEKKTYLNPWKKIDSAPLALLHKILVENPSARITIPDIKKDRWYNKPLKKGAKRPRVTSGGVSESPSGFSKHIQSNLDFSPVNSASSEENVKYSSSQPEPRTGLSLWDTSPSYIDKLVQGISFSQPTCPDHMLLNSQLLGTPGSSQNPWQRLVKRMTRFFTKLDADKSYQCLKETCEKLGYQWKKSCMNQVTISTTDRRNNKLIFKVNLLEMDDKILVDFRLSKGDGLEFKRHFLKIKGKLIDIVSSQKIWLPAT"}, "[8]": {"biological_target": "NEK1 (human) (UniProt Q96PY6)", "sequence (Q96PY6 whole entry, looked up)": "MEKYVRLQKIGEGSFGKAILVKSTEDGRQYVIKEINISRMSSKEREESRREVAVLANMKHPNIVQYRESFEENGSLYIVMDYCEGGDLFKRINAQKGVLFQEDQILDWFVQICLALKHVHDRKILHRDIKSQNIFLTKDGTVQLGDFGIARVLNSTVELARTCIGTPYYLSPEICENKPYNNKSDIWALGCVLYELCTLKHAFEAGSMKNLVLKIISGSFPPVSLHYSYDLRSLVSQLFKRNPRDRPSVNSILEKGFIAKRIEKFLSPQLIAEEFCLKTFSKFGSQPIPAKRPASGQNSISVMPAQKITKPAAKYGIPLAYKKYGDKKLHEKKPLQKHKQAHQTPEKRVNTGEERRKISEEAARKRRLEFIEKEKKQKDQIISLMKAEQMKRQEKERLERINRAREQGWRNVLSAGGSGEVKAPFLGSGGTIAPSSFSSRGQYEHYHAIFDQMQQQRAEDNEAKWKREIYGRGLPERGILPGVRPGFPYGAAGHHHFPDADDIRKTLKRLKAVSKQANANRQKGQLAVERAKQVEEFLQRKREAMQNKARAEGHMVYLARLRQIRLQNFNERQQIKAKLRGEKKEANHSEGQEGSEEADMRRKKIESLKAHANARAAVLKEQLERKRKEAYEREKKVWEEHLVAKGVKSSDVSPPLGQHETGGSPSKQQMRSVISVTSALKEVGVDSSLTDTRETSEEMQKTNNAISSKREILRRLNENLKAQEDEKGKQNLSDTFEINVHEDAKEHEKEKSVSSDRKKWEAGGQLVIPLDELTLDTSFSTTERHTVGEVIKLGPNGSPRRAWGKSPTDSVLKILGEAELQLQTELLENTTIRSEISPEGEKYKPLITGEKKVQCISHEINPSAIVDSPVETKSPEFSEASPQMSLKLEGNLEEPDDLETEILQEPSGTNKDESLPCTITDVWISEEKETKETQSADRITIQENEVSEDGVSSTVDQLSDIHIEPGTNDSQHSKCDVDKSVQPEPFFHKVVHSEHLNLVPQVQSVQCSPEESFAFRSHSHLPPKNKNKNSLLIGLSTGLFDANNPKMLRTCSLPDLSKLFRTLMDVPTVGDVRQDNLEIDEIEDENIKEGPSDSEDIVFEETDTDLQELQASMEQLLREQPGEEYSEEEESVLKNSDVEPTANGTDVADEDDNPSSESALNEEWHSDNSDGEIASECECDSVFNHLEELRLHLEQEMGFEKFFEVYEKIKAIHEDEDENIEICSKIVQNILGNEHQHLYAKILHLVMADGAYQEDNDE"}, "[9]": {"biological_target": "MET (human) (UniProt P08581)"}, "[10]": {"biological_target": "NEK9 (human) (UniProt Q8TD19)"}, "[11]": {"biological_target": "RPS6KB1 (human) (UniProt P23443)"}, "[12]": {"biological_target": "IRAK4 (human) (UniProt Q9NWZ3)"}, "[13]": {"biological_target": "EPHA8 (human) (UniProt P29322)"}, "[14]": {"biological_target": "FGFR1 (human) (UniProt P11362)"}, "[15]": {"biological_target": "EPHA7 (human) (UniProt Q15375)"}, "[16]": {"biological_target": "JAK1 JH1 JH2 (human) (UniProt P23458)"}, "[17]": {"biological_target": "PIM2 (human) (UniProt Q9P1W9)", "sequence (Q9P1W9 whole entry, looked up)": "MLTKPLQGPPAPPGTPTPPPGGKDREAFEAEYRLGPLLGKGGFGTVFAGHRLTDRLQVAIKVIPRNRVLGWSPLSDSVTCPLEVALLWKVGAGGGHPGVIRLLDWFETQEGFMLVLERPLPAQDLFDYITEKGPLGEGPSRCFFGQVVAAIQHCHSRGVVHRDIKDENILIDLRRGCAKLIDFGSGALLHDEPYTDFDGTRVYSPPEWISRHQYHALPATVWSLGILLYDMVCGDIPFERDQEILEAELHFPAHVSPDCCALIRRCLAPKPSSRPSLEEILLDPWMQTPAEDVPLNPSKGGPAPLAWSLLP"}, "[18]": {"biological_target": "ERBB2 (human) (UniProt P04626)", "settings": "compound 0.02 µM"}, "[19]": {"biological_target": "STK24 (human) (UniProt Q9Y6E0)"}, "[20]": {"biological_target": "ROCK2 (human) (UniProt O75116)"}, "[21]": {"biological_target": "LATS2 (human) (UniProt Q9NRM7)"}, "[22]": {"biological_target": "PDGFRB (human) (UniProt P09619)"}, "[23]": {"biological_target": "AURKA (human) (UniProt O14965)"}, "[24]": {"biological_target": "MAPK13 (human) (UniProt O15264)"}, "[25]": {"biological_target": "RPS6KA1 KD1 KD2 (human) (UniProt Q15418)"}, "[26]": {"biological_target": "STK3 (human) (UniProt Q13188)"}, "[27]": {"biological_target": "CAMK2A (human) (UniProt Q9UQM7)"}, "[28]": {"biological_target": "CSF1R (human) (UniProt P07333)"}, "[29]": {"biological_target": "NTRK2 (human) (UniProt Q16620)", "settings": "compound 0.02 µM"}, "[30]": {"biological_target": "NTRK3 (human) (UniProt Q16288)"}, "[31]": {"biological_target": "PRKCB1 (human) (UniProt P05771)", "sequence (P05771 whole entry, looked up)": "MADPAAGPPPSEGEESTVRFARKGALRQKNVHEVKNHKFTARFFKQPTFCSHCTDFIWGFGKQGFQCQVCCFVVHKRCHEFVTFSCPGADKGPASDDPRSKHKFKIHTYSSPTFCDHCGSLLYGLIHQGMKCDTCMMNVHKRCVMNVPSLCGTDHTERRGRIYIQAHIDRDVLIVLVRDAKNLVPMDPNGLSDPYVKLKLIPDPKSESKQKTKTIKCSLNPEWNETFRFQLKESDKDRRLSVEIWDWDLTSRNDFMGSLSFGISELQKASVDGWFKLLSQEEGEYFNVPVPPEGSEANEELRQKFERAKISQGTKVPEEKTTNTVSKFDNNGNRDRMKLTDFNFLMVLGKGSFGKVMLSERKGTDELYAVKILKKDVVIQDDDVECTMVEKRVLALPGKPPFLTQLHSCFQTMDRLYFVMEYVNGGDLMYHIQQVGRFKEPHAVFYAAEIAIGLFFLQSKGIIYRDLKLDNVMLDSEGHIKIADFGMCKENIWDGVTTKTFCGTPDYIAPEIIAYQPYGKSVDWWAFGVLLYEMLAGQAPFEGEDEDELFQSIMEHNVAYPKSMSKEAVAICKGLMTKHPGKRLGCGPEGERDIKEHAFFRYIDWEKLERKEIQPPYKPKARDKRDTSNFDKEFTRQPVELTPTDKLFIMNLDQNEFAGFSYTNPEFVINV"}, "[32]": {"biological_target": "DYRK2 (human) (UniProt Q92630)"}, "[33]": {"biological_target": "ROS1 (human) (UniProt P08922)"}, "[34]": {"biological_target": "CAMK2B (human) (UniProt Q13554)"}}, "note": "Where “and” joins values, the source holds several entries; their conditions need not be identical. Equal values may be shown once."}
{"molecule": "COc1cc2c(Oc3ccc4[nH]c(C)cc4c3F)ncnc2cc1OCCCN1CCCC1", "values": [{"measurement": "inhibition", "setting": "[1]; compound 0.02 µM", "result": -1.7, "unit": "%"}, {"measurement": "inhibition", "setting": "[1]; compound 0.2 µM", "result": 3.3, "unit": "%"}, {"measurement": "inhibition", "setting": "[2]; compound 0.02 µM", "result": 4.8, "unit": "%"}, {"measurement": "inhibition", "setting": "[2]; compound 0.2 µM", "result": 2.6, "unit": "%"}, {"measurement": "inhibition", "setting": "[3]; compound 0.02 µM", "result": 6.9, "unit": "%"}, {"measurement": "inhibition", "setting": "[3]; compound 0.2 µM", "result": 9.2, "unit": "%"}, {"measurement": "inhibition", "setting": "[4]; compound 0.02 µM", "result": -7.8, "unit": "%"}, {"measurement": "inhibition", "setting": "[4]; compound 0.2 µM", "result": -0.3, "unit": "%"}, {"measurement": "inhibition", "setting": "[5]; compound 0.02 µM", "result": 6.8, "unit": "%"}, {"measurement": "inhibition", "setting": "[5]; compound 0.2 µM", "result": -7.7, "unit": "%"}, {"measurement": "inhibition", "setting": "[6]; compound 0.02 µM", "result": -0.7, "unit": "%"}, {"measurement": "inhibition", "setting": "[6]; compound 0.2 µM", "result": -0.1, "unit": "%"}, {"measurement": "inhibition", "setting": "[7]; compound 0.02 µM", "result": -6.2, "unit": "%"}, {"measurement": "inhibition", "setting": "[7]; compound 0.2 µM", "result": -0.1, "unit": "%"}, {"measurement": "inhibition", "setting": "[8]; compound 0.02 µM", "result": -5, "unit": "%"}, {"measurement": "inhibition", "setting": "[8]; compound 0.2 µM", "result": -4.5, "unit": "%"}, {"measurement": "inhibition", "setting": "[9]; compound 0.02 µM", "result": 1, "unit": "%"}, {"measurement": "inhibition", "setting": "[9]; compound 0.2 µM", "result": 6, "unit": "%"}, {"measurement": "inhibition", "setting": "[10]; compound 0.02 µM", "result": -3.3, "unit": "%"}, {"measurement": "inhibition", "setting": "[10]; compound 0.2 µM", "result": -2.9, "unit": "%"}, {"measurement": "inhibition", "setting": "[11]; compound 0.02 µM", "result": 8.1, "unit": "%"}, {"measurement": "inhibition", "setting": "[11]; compound 0.2 µM", "result": 8.6, "unit": "%"}, {"measurement": "inhibition", "setting": "[12]; compound 0.02 µM", "result": -5.6, "unit": "%"}, {"measurement": "inhibition", "setting": "[12]; compound 0.2 µM", "result": -5.6, "unit": "%"}, {"measurement": "inhibition", "setting": "[13]; compound 0.02 µM", "result": -3.2, "unit": "%"}, {"measurement": "inhibition", "setting": "[13]; compound 0.2 µM", "result": 4.7, "unit": "%"}, {"measurement": "inhibition", "setting": "[14]; compound 0.02 µM", "result": 52.9, "unit": "%"}, {"measurement": "inhibition", "setting": "[14]; compound 0.2 µM", "result": 91.2, "unit": "%"}, {"measurement": "inhibition", "setting": "[15]; compound 0.02 µM", "result": -2.4, "unit": "%"}, {"measurement": "inhibition", "setting": "[15]; compound 0.2 µM", "result": 23.5, "unit": "%"}, {"measurement": "inhibition", "setting": "[16]; compound 0.02 µM", "result": -2.9, "unit": "%"}, {"measurement": "inhibition", "setting": "[16]; compound 0.2 µM", "result": -3.6, "unit": "%"}, {"measurement": "inhibition", "setting": "[17]; compound 0.02 µM", "result": 6.1, "unit": "%"}, {"measurement": "inhibition", "setting": "[17]; compound 0.2 µM", "result": 8.8, "unit": "%"}, {"measurement": "inhibition", "setting": "[18]", "result": 3.9, "unit": "%"}, {"measurement": "inhibition", "setting": "[19]; compound 0.02 µM", "result": 2, "unit": "%"}, {"measurement": "inhibition", "setting": "[19]; compound 0.2 µM", "result": 12.8, "unit": "%"}, {"measurement": "inhibition", "setting": "[20]; compound 0.02 µM", "result": -2.2, "unit": "%"}, {"measurement": "inhibition", "setting": "[20]; compound 0.2 µM", "result": -4.8, "unit": "%"}, {"measurement": "inhibition", "setting": "[21]; compound 0.02 µM", "result": -7.6, "unit": "%"}, {"measurement": "inhibition", "setting": "[21]; compound 0.2 µM", "result": -0.9, "unit": "%"}, {"measurement": "inhibition", "setting": "[22]; compound 0.02 µM", "result": 17.9, "unit": "%"}, {"measurement": "inhibition", "setting": "[22]; compound 0.2 µM", "result": 61.8, "unit": "%"}, {"measurement": "inhibition", "setting": "[23]; compound 0.02 µM", "result": 3.3, "unit": "%"}, {"measurement": "inhibition", "setting": "[23]; compound 0.2 µM", "result": 4.9, "unit": "%"}, {"measurement": "inhibition", "setting": "[24]; compound 0.02 µM", "result": -2.9, "unit": "%"}, {"measurement": "inhibition", "setting": "[24]; compound 0.2 µM", "result": -3.4, "unit": "%"}, {"measurement": "inhibition", "setting": "[25]; compound 0.02 µM", "result": -3.4, "unit": "%"}, {"measurement": "inhibition", "setting": "[25]; compound 0.2 µM", "result": -3.3, "unit": "%"}, {"measurement": "inhibition", "setting": "[26]; compound 0.02 µM", "result": -2.4, "unit": "%"}, {"measurement": "inhibition", "setting": "[26]; compound 0.2 µM", "result": -3, "unit": "%"}, {"measurement": "inhibition", "setting": "[27]; compound 0.02 µM", "result": 3.5, "unit": "%"}, {"measurement": "inhibition", "setting": "[27]; compound 0.2 µM", "result": 3.9, "unit": "%"}, {"measurement": "inhibition", "setting": "[28]; compound 0.02 µM", "result": 18.4, "unit": "%"}, {"measurement": "inhibition", "setting": "[28]; compound 0.2 µM", "result": 36.8, "unit": "%"}, {"measurement": "inhibition", "setting": "[29]", "result": 8.3, "unit": "%"}, {"measurement": "inhibition", "setting": "[30]; compound 0.02 µM", "result": 1.6, "unit": "%"}, {"measurement": "inhibition", "setting": "[30]; compound 0.2 µM", "result": 1.8, "unit": "%"}, {"measurement": "inhibition", "setting": "[31]; compound 0.02 µM", "result": "5.1% and 8.3%"}, {"measurement": "inhibition", "setting": "[31]; compound 0.2 µM", "result": "7.3% and 7.5%"}, {"measurement": "inhibition", "setting": "[32]; compound 0.02 µM", "result": 13.4, "unit": "%"}, {"measurement": "inhibition", "setting": "[32]; compound 0.2 µM", "result": -5.6, "unit": "%"}, {"measurement": "inhibition", "setting": "[33]; compound 0.02 µM", "result": 0.6, "unit": "%"}, {"measurement": "inhibition", "setting": "[33]; compound 0.2 µM", "result": 0.4, "unit": "%"}, {"measurement": "inhibition", "setting": "[34]; compound 0.02 µM", "result": -4.3, "unit": "%"}, {"measurement": "inhibition", "setting": "[34]; compound 0.2 µM", "result": -6, "unit": "%"}]}
